# From patent publication US6958345B2, “2-hydroxymethylcyclopropylidene methylpurines and -pyrimidines as antiviral agents” (The Regents of the University of Michigan, priority 1997, dated 2005)
# What was measured:
# CEM cells = experiment: Cytotoxicity in growing CEM cells, microscopic inspection; assay type: cell-based
# Method: (§1) Cells and viruses. The routine growth and passage of KB cells was performed in monolayer cultures using minimal essential medium (MEM) with either Hanks salts [MEM(H)] or Earle salts [MEM(E)] supplemented with 10% calf serum. The sodium bicarbonate concentration was varied to meet the buffering capacity required. Cultures of diploid human foreskin fibroblasts (HFF) or MRC-5 cells were grown in medium consisting of MEM(E) with 10% fetal bovine serum. Cells were passaged at 1:2 to 1:10 dilutions according to conventional procedures by using 0.05% trypsin plus 0.02% EDTA in a HEPES buffered salt solution (HBS) (Shipman, C., Jr., Proc. Soc. Exp. Biol. 130:305-310 (1969)) as described previously. Turk, S. R., et al., Antimicrob. Agents Chemother. 31:544-550 (1987). HFF and MRC-5 cells were passaged only at 1:2 dilutions. CEM cells were maintained in suspension culture as detailed previously. Kucera, L. S., et al., AIDS Res. Human Retroviruses 9:307-314 (1993).
# (§2) Cytotoxicity assays. Two different assays were used to explore cytotoxicity of selected compounds as we have detailed previously. (i) Cytotoxicity produced in stationary HFF cells and in growing CEM cells was determined by microscopic inspection of cells used in plaque and RT assays which were not affected by the virus. Turk, S. R., et al., Antimicrob. Agents Chemother. 31:544-550 (1987). (ii) The effect of compounds during two population doublings of KB cells was determined by crystal violet staining and spectrophotometric quantitation of dye eluted from stained cells. Prichard, M. N., et al., Antimicrob. Agents Chemother. 35:1060-1065 (1991).
# (§3) Data Analysis. Dose-response relationships were constructed by linearly regressing the percent inhibition of parameters derived in the preceding sections against log drug concentrations. Fifty-percent inhibitory (IC50) concentrations were calculated from the regression lines. Samples containing positive controls (acyclovir for HSV-1, ganciclovir for HCMV, and 2-acetylpyridine thiosemicarbazone for cytotoxicity) were used in all assays.
# [1] = test system: murine cytomegalovirus (MCMV); experiment: Mortality of mice infected with murine cytomegalovirus; assay type: in vivo
# Method: (§4) Compounds 1 (B=adenin-N^9-yl and guanin-N^9-yl) were evaluated in mice infected with murine cytomegalovirus (MCMV). Mice were infected intraperitonealy with sufficient MCMV to produce 90 to 100% mortality. Compounds were administered once daily for five days at doses of 5.6, 16.7 and 50 mg/kg by intraperitoneal injection in a 0.4% suspension of carboxymethylcellulose. Ganciclovir was administered in sterile water at the same doses as a positive control drug. All compounds were administered to separate groups of 15 mice each at 6, 24, and 48 hours after infection with MCMV. Groups of 10 uninfected mice also received test compounds as toxicity controls at the doses listed above.
# [2] = Toxicity controls: uninfected mice given test compound; assay type: in vivo; conditions: 5.6, 16.7 and 50 mg/kg i.p. once daily for five days
# Method: as §4
# HCMV [3] = experiment: HCMV plaque reduction assay in HFF cells; assay type: cell-based, Human CMV (HCMV); conditions: HFF cells; plaque reduction
# Method: as §1
# (§5) Virological procedures. Stock HCMV was prepared by infecting HFF cells at a multiplicity of infection (m.o.i.) of <0.01 plaque-forming units (p.f.u.) per cell. Cell growth medium was changed every four days until cytopathology was evident in all cells (approximately 21 days). Supernatant fluids were retained as the virus stock. High titer HSV-1 stocks were prepared by infecting KB cells at an m.o.i. of <0.1 as detailed previously. Turk, S. R., et al., Antimicrob. Agents Chemother. 31:544-550 (1987). Virus titers were determined using monolayer cultures of HFF cells for HCMV and monolayer cultures of BSC-1 cells for HSV-1 as described earlier. Prichard, M. N., et al., J. Virol. Methods 28:101-106 (1990). Briefly, HFF or BSC-1 cells were planted as described above in 96-well cluster dishes and incubated overnight at 37° C. in a humidified 3% CO297% air atmosphere. The next day cultures were inoculated with HCMV or HSV-1 and serially diluted 1:3 across the remaining eleven columns of the 96-well plate. Cultures were incubated at 37° C. for 2 hr to permit virus adsorption and then virus inoculum was replaced with 0.2 mL of fresh medium. Cultures were incubated for seven days for HCMV, two or three days for HSV-1, medium was removed, and the cell sheets were stained with 0.1% crystal violet in 20% methanol. Plaques were enumerated under 20-fold magnification in wells having the dilution which gave 5 to 20 plaques per well. Virus titers were calculated according to the following Formula: Titer (p.f.u./mL)=number of plaques×5×3^n; where n represents the nth dilution of the virus used to infect the well in which plaques were enumerated.
# (a) HCMV. The effect of compounds on the replication of HCMV has been measured using a plaque reduction assay. HFF cells in 24-well cluster dishes were infected with approximately 100 p.f.u. of HCMV per cm^2 cell sheet using the procedures detailed above. Following virus adsorption, compounds dissolved in growth medium were added to duplicate wells in three to six selected concentrations. Following incubation at 37° C. for 7 to 10 days, cell sheets were fixed, stained with crystal violet and microscopic plaques enumerated as described above. Drug effects were calculated as a percentage of reduction in number of plaques in the presence of each drug concentration compared to the number observed in the absence of drug. Ganciclovir (DHPG) was used as a positive control in all experiments.
# as §3
# HFF cells = experiment: Cytotoxicity in stationary HFF cells, microscopic inspection; assay type: cell-based, human
# Method: as §1, §2, §3
# HCMV [4] = experiment: HCMV yield reduction assay in HFF cells; assay type: cell-based, Human CMV (HCMV); conditions: footnote says IC90
# Method: as §5
# The effect of compounds on the replication of HCMV also was measured using a yield reduction assay. HFF cells were planted as described above in 96-well cluster dishes, incubated overnight, medium removed and the cultures were inoculated with HCMV at a m.o.i. of 0.5 to 1 p.f.u. per cell as reported elsewhere. After virus adsorption, inoculum was replaced with 0.2 mL of fresh medium containing test compounds. The first row of 12 wells was left undisturbed and served as virus controls. Each well in the second row received an additional 0.1 mL of medium with test compound at three times the desired final concentration. The contents of the 12 wells were mixed by repeated pipetting and then serially diluted 1:3 along the remaining wells. In this manner, six compounds could be tested in duplicate on a single plate with concentrations from 100 μM to 0.14 μM. Plates were incubated at 37° C. for seven days, subjected to one cycle of freezing and thawing; aliquots from each of the eight wells of a given column were transferred to the first column of a fresh 96-well monolayer culture of HFF cells. Contents were mixed and serially diluted 1:3 across the remaining eleven columns of the secondary plate. Each column of the original primary plate was diluted across a separate plate in this manner. Cultures were incubated, plaques were enumerated, and titers calculated as described above.
# as §3
# KB cells = experiment: Cytotoxicity in KB cells, growth over two population doublings; assay type: cell-based
# Method: as §1, §2, §3
smiles,measurement,setting,value
"Nc1ncnc2c1ncn2C=C1CC1CO (stereo not drawn) [1 (B = adenine), Example 5, syn-N^9-(2-hydroxymethylcyclopropylidenemethyl)adenine]",IC50,CEM cells,> 100 µM
same,mortality of MCMV-infected mice,"[1]; 50 mg/kg i.p. once daily for five days, placebo 100%",33%
same,effect on mortality at lower doses or delayed administration,"[1]; lower doses, administration delayed until 24 or 48 hours after infection",Decreasing effects
same,deaths in uninfected mice that received only drug,[2],No deaths were observed
same,IC50,HCMV [3],2 µM
same,IC50,HFF cells,> 100 µM
same,IC90,HCMV [4],1.5 µM
same,IC50,KB cells,82 µM
